According to patent US20200199230A1, “TREATMENT METHOD” (Hoffmann-La Roche Inc., priority 2017, published 2020):

What was measured:
[1] = system: tumor inflammation-related adverse effects; settings: preliminary data; confirmed PR and SD observed in patients given prophylaxis
[2] = system: advanced CEA positive solid tumors; format: in vivo, human
Protocol: In S1, 80 patients (70 CRC) were treated at dose levels of 0.05-600 mg; in S2, 45 patients (35 CRC) at 5-160 mg (data cut-off 3 Mar. 2017). In addition biomarker analysis and PK assays were conducted.

[3] = parameters: species or system human; settings: in vivo
Protocol: (§1) Methods: In 2 ongoing dose-escalation phase I studies, CEA-TCB is given as monotherapy IV QW (S1) or in combination (QW) with atezolizumab 1200 mg Q3W (S2) in patients with advanced CEA positive (≥20% of tumor cells expressing moderate or high) solid tumors. In S1, 80 patients (70 CRC) were treated at dose levels of 0.05-600 mg; in S2, 45 patients (35 CRC) at 5-160 mg (data cut-off 3 Mar. 2017). In addition biomarker analysis and PK assays were conducted.

[4] = system: intratumoral T cells; experiment: Biomarker analysis of on-treatment tumor biopsies; format: in vivo, human
Protocol: as §1

[5] = system: IL-6; experiment: Biomarker analysis: IL-6 after administration; format: in vivo, human; settings: most patients; after the first administration
Protocol: as §1

[6] = system: tumor cells; settings: preclinically; increased intratumoral T-cell infiltration and activation, T-cell-mediated tumor cell killing, PD-L1/PD-1 upregulation; cited from earlier work

Molecule	effect of prophylactic steroid doses on anti-tumor activity of CEA-TCB monotherapy or combination with atezolizumab [1]	tumor reduction of −10% to −30% (stable disease), share of patients ([2]; S1 monotherapy, doses ≥60 mg, MSS CRC patients, 4 patients) [%]	confirmed partial response (PR; RECIST v1.1), share of CRC patients ([2]; S1 monotherapy, doses ≥60 mg, two of 31 evaluable CRC patients, both MSS) [%]	metabolic PR (FDG PET; EORTC criteria), share of CRC patients ([2]; S1 monotherapy, weeks 4-6, 9 patients) [%]	MTD (maximum tolerated dose) ([2]; human, in vivo, iv) [mg]	patients with dose limiting toxicities (DLTs) ([2]; in vivo)	related adverse event: diarrhea ([2]; in vivo) [%]	related adverse event: infusion-related reactions (IRRs) ([2]; in vivo) [%]	related adverse event: pyrexia ([2]; in vivo) [%]	antitumor activity in advanced CRC ([2]; monotherapy, during dose escalation)	effect of ADA on drug clearance ([3]; human)	PK linearity [3]	increase in Ki67+ T cells as compared to baseline ([4]; S1, doses ≥60 mg, OT biopsies, P=0.035, without dose-dependence) [fold]	intratumoral CD8 T cells ([4]; on-treatment)	IL-6 change [5]	preclinical antitumor activity [6]
C[C@]12C=CC(=O)C=C1CC[C@@H]1[C@@H]2C(=O)C[C@@]2(C)[C@H]1CC[C@]2(O)C(=O)CO [prednisone]	did not impair the anti-tumor activity															
CEA-TCB: novel T-cell bispecific antibody targeting CEA on tumor cells and CD3 on T cells; polypeptides of SEQ ID NO: 25-28		13	6	29	< 600	Five	40	55	58	Evidence of antitumor activity	ADA increase CEA-TCB drug clearance	almost linear PK	3.6	On-treatment increases	increases in IL-6	potent antitumor activity
